How the values were obtained:
α4β2* nAChRs = α4β2* nAChRs (Rattus norvegicus, UniProt P09483+P12390); settings: rat brain slices; for displacement of [3H]cytisine: 100 nM
Description: In Vitro Studies: Ex vivo rat brain slices were prepared at 10 μm thick using a Leica 1850 cryotome and used for [^3H]cytisine binding. […] The apposed phosphor screens were read and analyzed by OptiQuant acquisition and analysis program of the Cyclone Storage Phosphor System (Packard Instruments Co., Boston, Mass.). Region-of-interest of same size were drawn and analyzed on brain regions using OptiQuant software and binding of [^3H]cytisine measured in Digital Light Units/mm^2 (DLU/mm^2). Data was analyzed using following procedure: (a) the non-specific binding of [^3H]cytisine was subtracted for all samples; (b) the specific binding was normalized to 100% (no competitive ligand) and (c) the binding isotherms were fit to the Hill equation (KELL BioSoft software (v 6), Cambridge, U.K.).
Nicotinic receptor binding: The Aβ plaque-α4β2* nAChR multi-agents were tested for their affinity to the α4β2* nAChRs using rat brain slices labeled with [^3H]cytisine. […] Three brain regions analyzed included thalamus, frontal cortex and subiculum.

Aβ amyloid plaques = assay: [3H]PIB competition autoradiography in postmortem human AD frontal cortex slices; type: binding; settings: for effect on [3H]PIB binding: 1 μM; for GM/WM ratio of [3H]PIB binding: human AD frontal cortex; for displacement of [3H]PIB (words, discussion): FIG. 10 and 11; for effect on [3H]PIB binding level: GM and WM
Description: Post-mortem human AD frontal cortex sections (10 μm thick; human brain tissue obtained from Banner Sun Health Research Institute, Sun City, Ariz.) were preincubated in 10% alcohol PBS buffer for 10 minutes. The brain sections were placed in a glass chamber and incubated with [^3H]PIB (2 μCi/cc) in 10% alcohol PBS buffer, pH 7.4 at 37° C. for 1 h. The slices were then washed with cold 10% alcohol PBS buffer (2×3 mins), cold deionized water 1 min, respectively. The brain sections were air dried, exposed overnight on a phosphor film, and then placed on the Phosphor Autoradiographic Imaging System/Cyclone Storage Phosphor System (Packard Instruments Co). Regions of interest (ROIs) were drawn on the slices and the extent of binding of [^3H]PIB was measured with DLU/mm^2 using the OptiQuant acquisition and analysis program (Packard Instruments Co).
The Aβ plaque-α4β2* nAChR multi-agent was tested for binding to Aβ amyloid plaques in human postmortem AD brain frontal cortex slices labeled with [^3H]PIB (75-90 year olds, Braak score V-VI).

Amyloid β = molecular target: T1, Amyloid β (Homo sapiens, UniProt P05067); settings: cited from earlier work
T1 construct: host or cells: AD patients (clinical trials)

[1] = 1 μM test agent, control GM/WM approx. 2
[2] = 10 μM test agent, control GM/WM approx. 3

Chain of α4β2* nAChRs (P09483 31-630): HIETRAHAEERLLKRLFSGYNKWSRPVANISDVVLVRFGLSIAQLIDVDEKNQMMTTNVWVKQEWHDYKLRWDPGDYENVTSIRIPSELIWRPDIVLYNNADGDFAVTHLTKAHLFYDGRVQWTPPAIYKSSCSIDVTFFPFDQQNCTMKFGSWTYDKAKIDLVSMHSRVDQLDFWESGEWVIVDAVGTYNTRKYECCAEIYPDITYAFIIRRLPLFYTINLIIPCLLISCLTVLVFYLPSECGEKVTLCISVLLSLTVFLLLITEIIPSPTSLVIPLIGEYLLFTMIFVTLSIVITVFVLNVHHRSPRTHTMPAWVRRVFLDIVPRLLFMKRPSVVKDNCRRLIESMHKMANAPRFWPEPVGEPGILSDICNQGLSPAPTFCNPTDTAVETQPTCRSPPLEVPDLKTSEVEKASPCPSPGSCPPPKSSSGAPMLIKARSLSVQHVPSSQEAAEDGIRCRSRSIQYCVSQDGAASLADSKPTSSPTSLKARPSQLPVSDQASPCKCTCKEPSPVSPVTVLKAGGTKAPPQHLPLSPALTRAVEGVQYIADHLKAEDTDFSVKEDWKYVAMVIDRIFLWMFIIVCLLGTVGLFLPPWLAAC
Chain of α4β2* nAChRs (P12390 25-500): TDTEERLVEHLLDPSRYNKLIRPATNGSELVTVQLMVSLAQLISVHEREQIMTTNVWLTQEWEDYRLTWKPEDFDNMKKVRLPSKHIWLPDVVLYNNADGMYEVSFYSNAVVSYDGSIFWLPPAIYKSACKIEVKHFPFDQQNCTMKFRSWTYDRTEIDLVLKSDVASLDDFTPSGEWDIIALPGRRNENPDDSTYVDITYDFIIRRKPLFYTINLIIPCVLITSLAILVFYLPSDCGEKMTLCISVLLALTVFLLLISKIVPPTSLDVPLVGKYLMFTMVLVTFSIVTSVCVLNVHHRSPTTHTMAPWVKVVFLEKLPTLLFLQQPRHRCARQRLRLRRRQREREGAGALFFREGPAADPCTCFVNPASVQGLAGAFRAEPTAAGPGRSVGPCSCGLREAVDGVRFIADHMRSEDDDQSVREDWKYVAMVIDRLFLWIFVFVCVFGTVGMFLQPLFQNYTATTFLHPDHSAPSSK

Compound | effect on [3H]PIB binding (Aβ amyloid plaques) | GM/WM ratio of [3H]PIB binding (Aβ amyloid plaques; [1]) | GM/WM ratio of [3H]PIB binding (Aβ amyloid plaques; [2]) | displacement of [3H]PIB (words, discussion) (Aβ amyloid plaques; human frontal cortex) | effect on [3H]PIB binding level (Aβ amyloid plaques; 10 μM) | other results
5-(3-methoxy-4-propyloxycinnamate)-3-(2-(S)-pyrrolidinylmethoxy)pyridine [GKS-007] | some inhibitory effect | no significant GM/WM ratio reduction | – | – | – | displacement of [3H]cytisine (α4β2* nAChRs): Displacement of significant amounts; affinity at α4β2* nAChR sites (α4β2* nAChRs): high affinity
5-(3′-Ethyl 3-methoxy-4-propyloxycinnamate)-3-(2-(S)-pyrrolidinylmethoxy)pyridine [GKS-006] | – | – | – | – | – | displacement of [3H]cytisine (α4β2* nAChRs): Displacement of significant amounts; affinity at α4β2* nAChR sites (α4β2* nAChRs): high affinity
COc1cc(/C=C/C(=O)CC(=O)/C=C/c2ccc(O)c(OC)c2)ccc1O [Curcumin, curcumin] | – | – | 1.5 | significant displacement effect | – | reduction of [3H]PIB binding (Aβ amyloid plaques; 10 μM, human frontal cortex): 50%
COc1cc(/C=C/C(=O)O)ccc1O [FA, ferulic acid] | did not significantly affect the binding | approx. 2 | 2 | little displacement | higher levels | –
CNc1ccc(N=Nc2ccc(N(C)C)cc2)cc1 [TAZA, N,N,N′-trimethyl-4,4′-azodianiline] | significant displacement | 1.3 | – | greater than observed by curcumin | – | –
Fexofenadine curcuminate [CUR-FEX] | – | – | 1.96 | largest displacement | lower binding | reduction of GM/WM ratio of [3H]PIB (Aβ amyloid plaques; human AD frontal cortex (FIG. 10, 10 μM)): 35%
Fexofenadine-(3-methoxy-4-(1′-aminobutyryloxy)cinnamic acid [KD003] | – | – | 2.4 | – | higher levels | –
Solanezumab: anti-amyloid monoclonal antibody | – | – | – | – | – | Aβ plaque load measured by PET imaging, before vs after antibody treatment (Amyloid β; large clinical trials): did not change significantly; Outcome (clinical) (Amyloid β; mild to moderate AD subjects): Did not improve

Reference: patent publication US11679103B2, “Multi-targeting agents for Alzheimer's disease therapy” (The Regents of the University of California, priority 2018, dated 2023)
